Each structure is given as a SMILES string.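 48-hour exposure; five concentrations; linearly interpolated endpoints. GI50 = concentration required for 50% inhibition of growth. TGI denotes the concentration required for complete inhibition of growth.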

Common to all, as to test: inhibition of tumour cell growth, NCI panel, 48 h
Assay [1] has as its system DU-145 prostate.
The test system of assay [2] is HCT-116 colon.
Assay [3] deals with HS 578T breast.
Assay [4] relates to NCI-H522 lung.
Assay [5] concerns PC-3 prostate.
For assay [6], the system named is SR leukemia.
The test system of assay [7] is SW-620 colon.
Assay [8] concerns UACC-257 melanoma.
For assay [9], the system named is LOX IMVI melanoma.

In the case of `COC(=O)c1c(C#C[Si](C)(C)C)c(C#C[Si](C)(C)C)c(C#C[Si](C)(C)C)c(C#C[Si](C)(C)C)c1C(=O)OC`, the TGI in assay [1], in assay [2], in assay [3], in assay [4], in assay [5] and in assay [6] was more than 100 µM each time. Moreover, the TGI in assay [7] and in assay [8] was more than 100 µM in each case.

Consider `C/C(=C\c1ccccc1)C(=O)NCc1ccc(C(=O)NCCc2c[nH]c3ccccc23)cc1`, for which the TGI in assay [1], in assay [2], in assay [9], in [4], in assay [5] and in assay [6] was more than 100 µM in each case. The TGI in [7] was more than 100 µM; in [8], 78.2 µM.

Turning to `CC1(C)O[C@@H](CP(c2cccc3ccccc23)c2cccc3ccccc23)[C@H](CP(c2cccc3ccccc23)c2cccc3ccccc23)O1`, the TGI in assay [1], in assay [2], in assay [9], in [4], in assay [5] and in assay [6] was more than 100 µM in each case. Also, the TGI in assay [7] and in assay [8] was more than 100 µM each time.

As for `Cc1ccc2c(=O)c(C(=O)N(CCO)CCO)c[nH]c2n1`, the TGI in assay [1], in [2], in [3], in [9], in assay [4] and in assay [5] was more than 100 µM each time. For the same molecule, the TGI in [7] and in assay [8] was more than 100 µM each time.

Take `O=C(NCCCCNCCCNC(=O)OCc1ccccc1)OCc1ccccc1`: the TGI in assay [1] is more than 100 µM; in assay [2], 70 µM; in assay [3] it was 88.8 µM; in assay [4], 39.2 µM; in assay [5], more than 100 µM; in [6] it was 92.3 µM. In addition, the TGI in [7] was more than 100 µM; in assay [8] it was 41.3 µM.

As for `COC(=O)[C@@H]1O[C@]12[C@@H](CO[Si](C)(C)C(C)(C)C)O[C@@H](n1cc(C)c(=O)[nH]c1=O)[C@@H]2O[Si](C)(C)C(C)(C)C`, the TGI is 39 µM in assay [1]; 29.9 µM in assay [2]; 42.5 µM in assay [3]; 10.2 µM in assay [9]; 30.1 µM in assay [4]; 55.7 µM in assay [5]. In addition, the TGI in [7] turned out to be 27.9 µM; in assay [8] it was 75.2 µM.

For `CC1(C)CC2(C)OC(=N)C1(C#N)C2(C#N)C#N` (stereo unspecified), the TGI amounted to 27.7 µM in assay [1]; 20.1 µM in assay [2]; 37.7 µM in [3]; 3.09 µM in assay [9]; 8.38 µM in assay [4]; 30.3 µM in [5]. In addition, the TGI amounted to 11.1 µM in assay [7] and 19.9 µM in assay [8].

`C=C1C(=O)O[C@H]2C3C(=C(C)CC[C@@H]12)C(=O)[C@@H]1OC31C` (stereo partly specified): the TGI in [1] was determined as 25.8 µM; in assay [2] it was 2.7 µM; in assay [3], 9.8 µM; in assay [9] it was 5.79 µM; in assay [4], 2.91 µM; in assay [5], 7.1 µM. The TGI was found to be 2.6 µM in assay [7] and 5.98 µM in assay [8].

Take `COc1ccccc1N1C(=O)/C(=C\c2cccc(Oc3ccccc3)c2)S(=O)(=O)C1c1ccccc1` (stereo unspecified): the TGI was more than 100 µM in assay [1]; more than 100 µM in assay [2]; more than 100 µM in assay [9]; more than 100 µM in assay [4]; more than 100 µM in assay [5]; 56.2 µM in assay [6]. The TGI in [7] and in assay [8] was more than 100 µM in each case.

`CCOC(=O)C1=C(C)N(c2ccc(C)cc2)C2(O)C=CC(=O)C3=C(O)c4ccccc4C(=O)C312` (stereo unspecified): the TGI in [1] is 55.7 µM; in [2], more than 100 µM; in assay [9] it was 96.8 µM; in [4], 34.7 µM; in assay [5], more than 100 µM; in assay [6] it was 2.6 µM. In addition, the TGI worked out at 61.1 µM in assay [7] and 57.9 µM in [8].

Regarding `c1cc2ccc1CNCCN1CCNCc3ccc(cc3)Oc3ccc(cc3)CNCCN(CCNCc3ccc(cc3)O2)CCNCc2ccc(cc2)Oc2ccc(cc2)CNCC1`, the GI50 in assay [1] was 1.46 µM; in [5] it was 0.358 µM; in assay [7] it was 1.11 µM; in assay [8] it was 1.8 µM. In addition, the TGI in [1] was found to be 2.83 µM; in assay [5], 1.24 µM; in assay [7], 2.63 µM; in [8], 3.4 µM.

As for `CCC1CCC2c3c([nH]c4ccccc34)C3C(=O)N(c4ccc(OC)cc4)C(=O)C3C2C1` (stereo unspecified), the TGI in assay [1] is more than 100 µM; in assay [2], more than 100 µM; in assay [3], 66.8 µM; in [4], more than 100 µM; in assay [5] it was more than 100 µM; in assay [6] it was 32.1 µM. The TGI in assay [7] was 82.4 µM; in assay [8], more than 100 µM.

In the case of `CCOC(=O)N1C(=S)C(C(=O)OC)(C(=O)OC)N=C1C`, the TGI in assay [1], in assay [2], in assay [9], in assay [5], in assay [6] and in assay [7] was more than 100 µM in each case. For the same molecule, the TGI in assay [8] was more than 100 µM.

Regarding `C[n+]1c(-c2ccc(/C=N/Nc3ccnc(N/N=C/c4ccc(-c5cn6ccccc6[n+]5C)cc4)n3)cc2)cn2ccccc21`, the TGI in assay [2] is more than 100 µM; in assay [3], 93.1 µM; in assay [4], more than 100 µM; in assay [5], more than 100 µM; in [6], more than 100 µM; in assay [7] it was more than 100 µM. The molecule further came in with a TGI in assay [8] of more than 100 µM.

For the molecule `Cc1ccc([N+](=O)[O-])cc1NC(=O)C(=O)C1CCC2=C(Sc3ccccc3N2)C1=O` (stereo unspecified), the TGI in [1], in assay [2], in assay [3], in [9], in [4] and in assay [5] was more than 100 µM throughout. Further, the TGI in assay [7] and in [8] was more than 100 µM each time.

As for `O=C(O)CCCc1ccc2c(c1)CC1(C2)Cc2ccc(CCCC(=O)O)cc2C1`, the TGI in [2], in [3], in [9], in assay [4], in [5] and in assay [6] was more than 100 µM throughout. The same molecule displayed a TGI in assay [8] of more than 100 µM.

Turning to `CC(C)c1nccn1Cc1ccc(Cl)cc1Cl`, the TGI in assay [1] is more than 100 µM; in assay [2], 63.4 µM; in assay [9], more than 100 µM; in assay [4], 97.9 µM; in assay [5] it was more than 100 µM; in [6], more than 100 µM. In addition, the TGI in assay [7] was more than 100 µM; in [8], 95.9 µM.

With `C=C(C(=O)OC)[C@H]1CC/C(C)=C/CC/C(C)=C/CC[C@@]2(C)O[C@@H]2C1`, the TGI in assay [1] stood at 58.2 µM; in [2] it was 28.7 µM; in [9], 28.8 µM; in assay [4] it was 38.5 µM; in assay [5] it was 46.4 µM; in assay [7], 37.2 µM. This molecule displayed a TGI in assay [8] of 62.3 µM.

Turning to `CC1(C)Oc2ccc3c(=O)c4ccccc4oc3c2C1C(=O)O` (stereo unspecified), the TGI in [1], in assay [2], in assay [3], in assay [4], in [5] and in [8] was more than 100 µM each time.

Turning to `O=c1oc2ccccc2c(O)c1Cc1cccc(Cc2c(O)c3ccccc3oc2=O)c1`, the TGI in assay [1], in assay [2], in [3], in assay [9], in assay [4] and in assay [5] was more than 100 µM each time. Further, the TGI in [7] and in [8] was more than 100 µM in each case.

Take `c1ccc(CNc2ncnc3n[nH]nc23)cc1`: the TGI in assay [1], in [2], in [9], in assay [4], in assay [5] and in assay [7] was more than 100 µM throughout. Besides, in [8], the TGI is more than 100 µM.

Turning to `CC1(C)CC(=O)C(=CN2C(=O)CNC2=S)C(=O)C1`, the TGI in assay [1], in [2], in [3], in [4], in assay [5] and in [7] was more than 100 µM throughout. In addition, the TGI in [8] is more than 100 µM.

On to `O=C(/C=C/c1ccccc1)CCc1c(O)c2ccccc2oc1=O`, for which the TGI in assay [1], in assay [2], in assay [3], in [9], in assay [4] and in assay [5] was more than 100 µM throughout. For the same molecule, the TGI in assay [7] and in assay [8] was more than 100 µM throughout.

As for `O=C(NC/C=C/Br)NC1CCNc2ccccc21` (stereo unspecified), the TGI in [1] was more than 100 µM; in [2], more than 100 µM; in [9], 56.8 µM; in assay [4] it was more than 100 µM; in assay [5], more than 100 µM; in assay [6], 61.8 µM. Besides, the TGI in [7] was more than 100 µM; in [8], 54.9 µM.

Consider `COC(=O)C1=C(C)NC2(C)OC(C)(O)C(C(C)=O)C12C(C)=O` (stereo unspecified), for which the TGI was more than 100 µM in assay [1]; more than 100 µM in assay [2]; 65.1 µM in [3]; more than 100 µM in assay [9]; more than 100 µM in [4]; more than 100 µM in [5]. Also, the TGI in assay [7] and in assay [8] was more than 100 µM throughout.

In the case of `CN(C)C=Nc1nncc2n[nH]nc12`, the TGI in assay [1], in assay [2], in assay [3], in [5], in assay [6] and in [7] was more than 100 µM each time. For the same molecule, the TGI in [8] is more than 100 µM.

Turning to `S=C(Nc1ccc2c(c1)Cc1ccccc1-2)Nc1ccc2c(c1)Cc1ccccc1-2`, the TGI in assay [1], in assay [2], in [3], in [9], in assay [4] and in [5] was more than 100 µM throughout. The TGI in assay [7] and in assay [8] was more than 100 µM in each case.

With `O=c1/c(=C/c2ccc(-c3ccc(Cl)cc3Cl)o2)sc2n1[C@@H](c1ccc3c(c1)OCO3)C=C(c1cc(F)c(Cl)cc1Cl)N=2`, the TGI in [1], in [2], in assay [3], in assay [9], in assay [4] and in assay [5] was more than 100 µM each time. Further, the TGI was more than 100 µM in assay [7] and 71.1 µM in assay [8].

For the molecule `COC1=CC(=O)c2c(cc(COP(=O)(N(C)CCBr)N(C)CCBr)n2C)C1=O`, the TGI in [1] was 19.5 µM; in assay [2], 4.85 µM; in assay [3] it was 5.04 µM; in assay [9], 3.31 µM; in assay [4] it was 2.15 µM; in assay [5], more than 83.2 µM. Moreover, the TGI in assay [7] turned out to be 7.58 µM; in [8], 12.9 µM.

As for `CC(C)CC(NC(=O)C(COc1ccc([N+](=O)[O-])cc1)Cc1ccccc1)C(=O)Nc1ccccc1` (stereo unspecified), the TGI is more than 100 µM in assay [1]; more than 100 µM in assay [2]; more than 100 µM in [9]; 55.2 µM in assay [4]; more than 100 µM in [5]; more than 100 µM in assay [6]. In addition, the TGI in assay [7] and in assay [8] was more than 100 µM each time.

As to `Cn1c(=O)c2sc3cc4c(cc3c2c2ccccc21)sc1c(=O)n(C)c2ccccc2c14`, the TGI in assay [1], in assay [2], in [3], in assay [4], in assay [5] and in assay [6] was more than 100 µM each time. Besides, the TGI in assay [7] and in assay [8] was more than 100 µM in each case.

For `COc1ccc(N2C(=O)/C(=C/c3ccc(N(CCC#N)CCC#N)cc3)N=C2c2ccccc2)c(OC)c1`, the TGI in [1] was more than 100 µM; in assay [2], more than 100 µM; in assay [3] it was more than 100 µM; in assay [4], 74.1 µM; in assay [6] it was 60.3 µM; in assay [7], more than 100 µM. This molecule displayed a TGI in [8] of more than 100 µM.
